US9167816B2, “Antimicrobial composition for inhibiting microbial organisms and the method thereof” (National Taiwan University, priority 2013, dated 2015)
No end group written: not given here.

Tests used:
A. tumefaciens C58C^1 = format: cell-based, Agrobacterium tumefaciens
Method: (§1) (A) Bacterial growth inhibited by LsGRP1-derived peptides. The bacterial suspension with an OD600 of 0.15 was treated with 2.5 mg/ml peptide solution for 90 min, and the CFUs in each peptide sample were measured at 20-24 h post treatment by serial-dilution plating Inhibition of bacterial growth (%)=[(CFUs in water treatment−CFUs in peptide treatment)/CFUs in water treatment]×100%. (B) Spore germination of plant fungal pathogens inhibited by LsGRP1-derived peptides. Fungal spores with a concentration of 1×10^5 spores/ml were treated with 2.5 mg/ml peptide for 16-20 h before the observation of spore germination under light microscope. Inhibition of fungal spore germination (%)=[(Number of spores germinating in water−Number of spores germinating in peptide solution)/Number of spores germinating in water]×100%.
(§2) The bacterial strains used in this invention included Agrobacterium tumefaciens C58C^1 (Van Larebeke et al., 1974), Bacillus subtilis 28-4, Escherichia coli DH5α (Invitrogen), Dickeya chrysanthemi TA1, Pseudomonas syringae pv. syringae 61 (Huang et al., 1988), and Xanthomonas campestris XCP3. […]
(§3) The antibacterial and antifungal activities of these peptides were determined by measuring the inhibition rate of bacterial growth and fungal spore germination. […] After incubation for 20-24 h, the colony-forming units (CFUs) in each peptide-treated sample were quantified. […]

B. subtilis 28-4 = format: cell-based, Bacillus subtilis; conditions: Inhibition of bacterial growth (OD600 = 0.15)
Method: as §1, §2, §3

E. coli DH5α = format: cell-based, Escherichia coli; conditions: Inhibition of bacterial growth (OD600 = 0.15)
Method: as §1, §2, §3

D. chrysanthemi TA1 = format: cell-based, Dickeya chrysanthemi; conditions: 2500 μg/ml peptide, 90 min, CFUs at 20-24 h
Method: as §1, §2, §3

[1] = tested on: P. syringae pv. syringae 61; format: cell-based, Pseudomonas syringae pv. syringae; conditions: Inhibition of bacterial growth (OD600 = 0.15)
Method: as §1, §2, §3

X. campestris XCP3 = format: cell-based, Xanthomonas campestris
Method: as §1, §2, §3

[2] = tested on: all assayed bacterial species (six bacterial species); format: cell-based
Method: as §1, §2, §3

A. brassicicola Ac1 = format: cell-based, Alternaria brassicicola; conditions: Inhibition of fungal spore germination at 5 × 10^4 spores/ml
Method: as §1
(§4) The fungi used in this study included Alternaria brassicicola Ac1, Botrytis cinerea B-134, Botrytis elliptica B061, Colletotrichum acutatum HL1, and Colletotrichum gleosporioides MT1. […]
as §3

B. cinerea B-134 = format: cell-based, Botrytis cinerea
Method: as §1, §4, §3

B. elliptica B061 = format: cell-based, Botrytis elliptica; conditions: Inhibition of fungal spore germination at 5 × 10^4 spores/ml
Method: as §1, with “Fungal spores with a concentration of 1×10^5 spores/ml were treated with 2.5 mg/ml peptide for 16-20 h before the observation of spore germination under light microscope.” left out
as §4, §3

C. acutatum HL1 = format: cell-based, Colletotrichum acutatum; conditions: Inhibition of fungal spore germination at 5 × 10^4 spores/ml
Method: as §1, with “Fungal spores with a concentration of 1×10^5 spores/ml were treated with 2.5 mg/ml peptide for 16-20 h before the observation of spore germination under light microscope.” left out
as §4, §3

C. gleosporioides MT1 = format: cell-based, Colletotrichum gleosporioides; conditions: 2.5 mg/ml peptide, 16-20 h, 1×10^5 spores/ml
Method: as §1, §4, §3

assayed fungal species = test: Growth inhibition assay, fungal spore germination, statements on the assayed fungal species; format: cell-based
Method: as §1, §4, §3

[3] = tested on: assayed microbes (bacterial and fungal species); format: cell-based
Method: The antibacterial and antifungal activities of these peptides were determined by measuring the inhibition rate of bacterial growth and fungal spore germination. Bacterial suspensions with an OD600 at 0.15 were treated with peptide solution for 90 min, then serially diluted and plated on LB media. After incubation for 20-24 h, the colony-forming units (CFUs) in each peptide-treated sample were quantified. The inhibition of bacterial growth (%)=[(CFUs in water treatment−CFUs in peptide treatment)/CFUs in water treatment]×100%. On the other hand, fungal spore suspensions of 1×10^5 spores/ml were treated with peptide solutions for 16-20 h, and then the spore germinations were examined under microscope. The germ tube greater than two times of spore length was considered germinated Inhibition of fungal spore germination (%)=[(Number of the spores germinating in water−Number of the spores germinating in peptide solution)/Number of the spores germinating in water]×100%. Sterile deionized water replaced the peptide solution as a control treatment. All assays were performed in triplicate. Based on the data, the concentrations of peptide for 50% growth inhibition (IC50) of each microbe were determined.
According to the IC50 values of LsGRP1^C on different bacterial and fungal species, the antimicrobial potency of LsGRP1^C was verified.

[4] = tested on: spores and hyphae of A. brassicicola Ac1, B. cinerea B-134, B. elliptica B061 and C. acutatum HL1; test: Light microscopy of treated fungal spores and hyphae; format: cell-based; conditions: 50 μg/ml; spores 2 h, hyphae 16 h
[5] = tested on: spores and hyphae of A. brassicicola Ac1, B. cinerea B-134, B. elliptica B061 and C. acutatum HL1; test: DAPI staining of fungal spores and hyphae (chromatin condensation); format: cell-based; conditions: 50 μg/ml; spores 2 h, hyphae 16 h
Method: (§5) The fungal spores (A) and hyphae (B) were treated with 50 μg/ml LsGRP1^C for 2 h and 16 h, respectively. Then membrane permeability, chromatin condensation and reactive oxygen species accumulation of treated spores and hyphae were assayed by staining with SYTOX Green, DAPI and H2DCFDA, respectively. Sterile deionized water was used instead of LsGRP1^C as a control. Bar=20 μm (A) or 50 μm (B).
Fungal spore and hyphae were treated with 50 μg/ml peptide solution for 2 h and 16 h, respectively. Then the fungal cells were stained with 4′,6′-diamidino-2-phenylindole (DAPI) at a final concentration of 1 μg/ml in the dark for 10 min before observation under Leica DMIL florescent microscope equipped with a Leica A filter set (BP340-380 nm, DM 400 nm, LP425 nm). Sterile deionized water was used instead of the peptide solution as a control.

[6] = tested on: A. brassicicola Ac1, B. cinerea B-134, B. elliptica B061 and C. acutatum HL1; test: H2DCFDA staining (reactive oxygen species accumulation), germinating spores; format: cell-based; conditions: 50 μg/ml
Method: as §5
(§6) Fungal spore and hyphae were treated with 50 μg/ml peptide solution for 2 h and 16 h, respectively. Then the fungal cells were stained with 10 μM 2′,7′-dichlorodihydrofluorescein diacetate (H2DCFDA) in the dark for 60 min before observation under Leica DMIL florescent microscope equipped with a Chroma 41012 filter set. Sterile deionized water was used instead of peptide solution as a control.

B. elliptica = test: H2DCFDA staining (reactive oxygen species accumulation), non-germinating spores; format: cell-based, Botrytis elliptica; conditions: 50 μg/ml, 2 h
Method: as §5, §6

A. brassicicola = test: Disease suppression assay, cabbage black spot; format: in vivo, Alternaria brassicicola on cabbage leaves; conditions: 7 days after inoculation
Method: (§7) The synthetic LsGRP1^C solutions of 2.5, 0.25 or 0.025 mg/ml were used. LsGRP1^C solution was dropped onto the surface of cabbage leaves. Meanwhile 5 μl spore suspension of A. brassicicola (2×10^5 conidia/ml), a fungal pathogen of cabbage black spot, was mixed with LsGRP1^C solution. In addition, fungal spore suspension was deposited before or after LsGRP1^C application. On the other hand, synthetic LsGRP1^C solution was dropped onto strawberry flowers, and then mixed with spore suspension of B. cinerea (2×10^5 conidia/ml). Similarly, synthetic LsGRP1^C solution was dropped onto tomato leaves, and then mixed with bacterial suspension of P. syringae (10^7 CFU/ml). Sterile water was used instead of LsGRP1^C solution as a control. Lesion development was examined visually.
Fungal inoculation was two days (−2) or one day (−1) before treatment besides at same time of the treatment. Fungal inoculation was also performed two day (2) or one day (1) after treatment.

B. cinerea = test: Disease suppression assay, gray mold; format: in vivo, Botrytis cinerea on strawberry and orchid flowers; conditions: different concentrations
Method: as §7
Synthetic LsGRP1^C solution (1 μl each) was dropped onto strawberry flowers, then mixed with 1 μl spore suspension of B. cinerea. […] LsGRP1^C solution (5 μl each) was dropped onto orchid flowers, then mixed with 5 μl spore suspension of B. cinerea.

P. syringae = test: Disease suppression assay, bacterial leaf spot in tomato; format: in vivo, Pseudomonas syringae on tomato leaves; conditions: 6 days after inoculation
Method: as §7
LsGRP1^C solution (10 μl each) was dropped onto wounded tissues of tomato leaves, mixed with 10 μl bacterial suspension (10^7 CFU/ml) of pathogenic P. syringae, and then lesion development was examined 6 days after bacterial inoculation.

[7] = 2500 μg/ml peptide, 90 min, CFUs at 20-24 h
[8] = Inhibition of bacterial growth (OD600 = 0.15)

Q: Which “Inhibition of bacterial growth” value (A. tumefaciens C58C^1; [7]) does the source give for GRELAEETKENTEKRATEAGVADQKY [LsGRP1^N] here?
A: over 98.5%

Q: What about the IC50 (A. tumefaciens C58C^1; [8]) of the same sequence?
A: 71.79 µg/mL

Q: What about the IC50 (B. subtilis 28-4) of the same sequence?
A: 23.32 µg/mL

Q: And the IC50 (E. coli DH5α)?
A: 9.67 µg/mL

Q: What about the “Inhibition of bacterial growth” value (D. chrysanthemi TA1) of the same sequence?
A: over 98.5%

Q: And the IC50 [1]?
A: 20.63 µg/mL

Q: And the “Inhibition of bacterial growth” value (X. campestris XCP3; [7])?
A: 69.6%

Q: And the IC50 (X. campestris XCP3; [8])?
A: 32.19 µg/mL

Q: And the “Inhibition of bacterial growth on all assayed bacterial species” value ([2]; 2500 μg/ml, 90 min, CFUs at 20-24 h, all six species)?
A: more than 99.5%

Q: What about the “IC50 on all assayed bacterial species except A. tumefaciens C58C^1” value ([2]; summary bound of Table 1) of the same sequence?
A: lower than 32.19 μg/ml

Q: And the IC50 (A. brassicicola Ac1)?
A: 54.80 µg/mL

Q: What about the “Inhibition of fungal spore germination” value (B. cinerea B-134; 2.5 mg/ml peptide, 16-20 h, 1×10^5 spores/ml) of the same sequence?
A: not affected

Q: What about the IC50 (B. cinerea B-134; Inhibition of fungal spore germination at 5 × 10^4 spores/ml) of the same sequence?
A: 58.26 µg/mL

Q: And the IC50 (B. elliptica B061)?
A: 86.13 µg/mL

Q: And the IC50 (C. acutatum HL1)?
A: 17.39 µg/mL

Q: What about the “Inhibition of fungal spore germination” value (C. gleosporioides MT1) of the same sequence?
A: not affected

Q: And the “Inhibition of fungal spore germination, fungi other than B. elliptica B061” value (assayed fungal species; 2.5 mg/ml peptide, 16-20 h, with the exception of B. elliptica B061)?
A: did not inhibit spore germination

Q: What about the “IC50 on the assayed fungal species except B. elliptica” value (assayed fungal species; summary bound of Table 1) of the same sequence?
A: below 58.26 μg/ml

Q: What about the “IC50 on all assayed microbes” value [3] of the same sequence?
A: below 86.13 μg/ml

Q: And the “morphology of spores and hyphae under light microscope” value [4]?
A: abnormal blebbing and shrinkage

Q: What about the “DAPI staining, nuclear chromatin condensation” value [5] of the same sequence?
A: nuclear chromatin condensation

Q: And the “ROS accumulation (H2DCFDA) in germinating spores” value [6]?
A: visualized

Q: What about the “ROS accumulation (H2DCFDA) in non-germinating spores” value (B. elliptica) of the same sequence?
A: present

Q: What about the “suppression of lesion development of cabbage black spot” value (A. brassicicola; 0.025 mg/ml, fungal inoculation 2 days before treatment) of the same sequence?
A: did not occur

Q: What about the “lesion development of cabbage black spot” value (A. brassicicola; 0.25 mg/ml, treatment at same time or 1-2 day before/after inoculation) of the same sequence?
A: could be inhibited

Q: What about the “lesion development of orchid gray mold” value (B. cinerea; orchid flowers, 9 days after inoculation) of the same sequence?
A: could be suppressed

Q: What about the “lesion development of strawberry gray mold” value (B. cinerea; strawberry flowers, 3 days after inoculation) of the same sequence?
A: could be suppressed

Q: What about the “lesion development of bacterial leaf spot in tomato” value (P. syringae; 0.025 mg/ml) of the same sequence?
A: could inhibit lesion development

Q: And the “lesion development of bacterial leaf spot in tomato” value (P. syringae; 0.25 mg/ml)?
A: could inhibit lesion development
